According to US20230295212A1 (ROME Therapeutics, Inc., priority 2022, published 2023):

What was measured:
[1] = target: T1, LINE1 reverse transcriptase (Homo sapiens, UniProt O00370); test: Stable artificial-intron Cis LINE1 reporter assay (HeLa Tet-On 3G, Firefly luciferase); type: cell-based; conditions: HeLa L1 artificial-intron reporter cells, doxycycline 500 ng/mL, 72 h, class symbols
T1 construct: expressed in transfected cells; host or cells: HeLa Tet-On 3G (Takara, cat no 631183)
Procedure, shortened: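 HeLa Tet-On 3G clone stably carrying a bi-directional doxycycline-inducible artificial-intron LINE1 reporter, plated at 8,000 cells/well onto serially diluted compound. Expression induced with 500 ng/mL doxycycline (final); Firefly luciferase luminescence (Dual-Glo) read 72 h after plating as LINE1 activity.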

[2] = system: phosphorylated TANK-binding kinase 1 (pTBK1); test: UVB-induced pTBK1 in HaCaT cells (ELISA); type: cell-based
Description: pTBK1 is an important signaling molecule in regulating inflammatory responses. HaCaT cells were plated in 6-well plates at a density of ˜100 k/well in HaCaT media (DMEM, optimized 1×(Addex Bio)^+1% pen strep (Gibco)^+5% heat inactivated fetal bovine serum (Gibco)). The cells were then cultured at 37° C. overnight. The next day, the cells were treated with the test compounds. Each test compound was diluted and added to media aliquots to provide desired concentrations. To add the test compound+media mixture, an equivalent amount of media from each well was aspirated and then replenished with the media dosed with the test compound. The cells were then cultured for an additional 72 hours with compound treatment prior to UVB exposure.
The media was then aspirated from the wells, with the remaining cells at least 80% confluent in each well. One mL of PBS was then added to each well, and the plate was then placed under a UVB lamp. A UVB sensor was positioned near the plate to register the plate's exposure. The cells were exposed to the UVB light until they reached 0.1 mJ/cm2. […]
A RIPA lysis buffer (#BP-115, Boston BioProducts) was added to a Halt protease and […] inhibitor cocktail (#78440, ThermoFisher), and the mixture was cooled on ice. […] The protein concentration of the cell lysate was measured using Pierce™ Rapid Gold BCA Protein Assay Kit #AF3225 (ThermoFisher). […]

[3] = system: THP1-Dual KO-TREX1 xenograft tumors; test: Altering IFN production in THP1-Dual KO-TREX1 mouse xenografts (Compound 67); type: in vivo; conditions: CB-17 SCID mice, decitabine 5 mg/kg SC, compound 0.3-100 mg/kg PO once daily 5 days, tumors 4 h post-last dose
Description: Exemplary Compound 67 was tested for its ability to alter IFN levels in THP1-Dual™ KO-TREX1 xenografts in mice. Assay procedures are described below.
CB-17 SCID female mice were inoculated subcutaneously with 10 million THP1-Dual™ KO-TREX1 cells in 200 μl PBS with Matrigel (1:1) and grouped at N=5 per treatment per sampling timepoint when tumor volume reached an average of 340 mm^3. Six groups were co-administered: (1) decitabine (DAC) at 5 mg/kg SC, once daily, for 5 days, and (2) test compound 67 at one of six doses (0.3 mg/kg PO, 1 mg/kg PO, 3 mg/kg PO, 10 mg/kg PO, 30 mg/kg PO, 100 mg/kg PO) once daily, for 5 days. Two additional groups were administered (1) decitabine and test compound vehicle control SC+PO, once daily, for 5 days, and (2) decitabine at 5 mg/kg SC, once daily, for 5 days. […]
Tumors were harvested 4 h post-last dose administered on day 5, grinded in PBS at 50 Hz for 5 min, kept on ice for 30 min while being vortexed every 5 min. […] Equal amounts of proteins were added to 96-well black plates, and luciferase signal was measured using the QUANTI-Luc™ detection medium according to manufacturer's instructions. Luminescence was measured using the EnVision® 2105 Multimode Plate Reader.
Experimental results are depicted in FIG. 9. […] In FIG. 9, IFN signal was measured in tumors harvested from mice 4 hours after the final decitabine and test compound dosing on day 5.

T1 sequence (O00370 whole entry, looked up): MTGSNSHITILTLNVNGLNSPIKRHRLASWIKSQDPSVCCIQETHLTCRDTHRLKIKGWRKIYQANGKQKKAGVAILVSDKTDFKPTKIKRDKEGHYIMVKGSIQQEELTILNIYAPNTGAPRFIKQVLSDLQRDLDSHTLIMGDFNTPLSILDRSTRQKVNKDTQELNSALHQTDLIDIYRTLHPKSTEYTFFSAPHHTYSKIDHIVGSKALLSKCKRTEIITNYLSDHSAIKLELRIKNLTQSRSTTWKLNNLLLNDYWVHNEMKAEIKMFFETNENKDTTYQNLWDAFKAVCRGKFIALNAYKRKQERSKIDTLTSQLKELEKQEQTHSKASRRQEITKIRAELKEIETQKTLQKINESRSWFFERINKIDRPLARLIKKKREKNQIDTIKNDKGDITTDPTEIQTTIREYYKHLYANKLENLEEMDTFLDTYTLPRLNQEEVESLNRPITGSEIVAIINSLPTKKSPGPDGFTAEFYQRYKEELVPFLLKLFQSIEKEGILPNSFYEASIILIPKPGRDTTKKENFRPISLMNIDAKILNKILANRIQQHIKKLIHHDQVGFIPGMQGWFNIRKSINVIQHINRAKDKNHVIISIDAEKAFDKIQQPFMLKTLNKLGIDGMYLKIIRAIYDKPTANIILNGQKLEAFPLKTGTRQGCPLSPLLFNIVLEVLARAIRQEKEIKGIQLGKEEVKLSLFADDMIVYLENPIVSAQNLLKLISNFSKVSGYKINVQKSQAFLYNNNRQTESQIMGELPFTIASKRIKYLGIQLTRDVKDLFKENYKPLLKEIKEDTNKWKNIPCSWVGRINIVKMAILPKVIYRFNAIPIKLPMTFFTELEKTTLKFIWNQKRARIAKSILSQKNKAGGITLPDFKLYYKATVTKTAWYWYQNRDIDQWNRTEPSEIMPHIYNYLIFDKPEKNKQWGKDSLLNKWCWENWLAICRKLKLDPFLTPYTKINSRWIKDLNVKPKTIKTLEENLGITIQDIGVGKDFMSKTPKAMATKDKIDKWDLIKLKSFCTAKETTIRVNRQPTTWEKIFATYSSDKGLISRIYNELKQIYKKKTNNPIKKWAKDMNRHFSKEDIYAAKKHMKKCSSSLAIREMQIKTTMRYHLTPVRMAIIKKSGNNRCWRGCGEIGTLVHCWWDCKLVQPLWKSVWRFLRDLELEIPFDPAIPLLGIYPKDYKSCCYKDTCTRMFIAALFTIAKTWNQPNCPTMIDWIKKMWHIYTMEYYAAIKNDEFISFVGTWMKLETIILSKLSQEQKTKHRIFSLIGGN

| Compound | IC50 [1] [nM] | cytotoxicity, concentration [2] [µM] | inhibition of DAC-induced IFN signal in THP1 tumors [3] |
| --- | --- | --- | --- |
| Nc1nc(=O)n([C@H]2C[C@H](O)[C@](CO)(CCl)O2)cc1F [Compound 14, 4-amino-1-((2R,4S,5R)-5-(chloromethyl)-4-hydroxy-5-(hydroxymethyl)tetrahydrofuran-2-yl)-5-fluoropyrimidin-2(1H)-one] | ≤ 50 | ≥ 30 | – |
| Nc1nc(=O)n([C@@H]2O[C@@](CO)(CCl)[C@@H](O)[C@@H]2F)cc1F [Compound 67, 4-amino-1-[(2R,3S,4R,5R)-5-(chloromethyl)-3-fluoro-4-hydroxy-5-(hydroxymethyl)oxolan-2-yl]-5-fluoropyrimidin-2-one] | ≤ 50 | – | dose-response inhibition of DAC-induced IFN signal |
